Source: the NIST ThermoML archive (doi:10.1016/j.jct.2003.11.008)

Tests used:
[1] = xn = mol fraction of the nth substance listed; details: 318.15 K, 101.3 kPa, Liquid
[2] = excess molar enthalpy (molar enthalpy of mixing); xn = mol fraction of the nth substance listed; details: 318.15 K, 101.3 kPa, Liquid

CCCCCOC(C)=O [pentyl ethanoate] + CCCCCCCCC
Details	excess molar enthalpy [kcal/mol]	excess molar volume [m3/mol]
[1], x1 = 0.0672	–	1.52e-07
[1], x1 = 0.1243	–	2.83e-07
[1], x1 = 0.1813	–	4.14e-07
[1], x1 = 0.2354	–	5.13e-07
[1], x1 = 0.3037	–	5.97e-07
[1], x1 = 0.3405	–	6.3e-07
[1], x1 = 0.3995	–	6.66e-07
[1], x1 = 0.4479	–	6.75e-07
[1], x1 = 0.5035	–	6.77e-07
[1], x1 = 0.5492	–	6.64e-07
[1], x1 = 0.6071	–	6.24e-07
[1], x1 = 0.6461	–	5.91e-07
[1], x1 = 0.685	–	5.48e-07
[1], x1 = 0.7852	–	4.49e-07
[1], x1 = 0.8739	–	3.42e-07
[1], x1 = 0.9451	–	2.1e-07
[2], x1 = 0.0676	0.0718	–
[2], x1 = 0.1364	0.126	–
[2], x1 = 0.2097	0.173	–
[2], x1 = 0.2818	0.207	–
[2], x1 = 0.3491	0.228	–
[2], x1 = 0.4124	0.239	–
[2], x1 = 0.4692	0.243	–
[2], x1 = 0.5191	0.239	–
[2], x1 = 0.5639	0.232	–
[2], x1 = 0.621	0.216	–
[2], x1 = 0.6739	0.202	–
[2], x1 = 0.7288	0.181	–
[2], x1 = 0.7858	0.154	–
[2], x1 = 0.8432	0.12	–
[2], x1 = 0.8986	0.0826	–
[2], x1 = 0.9529	0.0421	–

CCCCCOC(C)=O [pentyl ethanoate] + CCCCCCCCCCC
Details	excess molar enthalpy [kcal/mol]	excess molar volume [m3/mol]
[1], x1 = 0.0737	–	2.57e-07
[1], x1 = 0.1355	–	4.05e-07
[1], x1 = 0.2015	–	5.38e-07
[1], x1 = 0.2641	–	6.43e-07
[1], x1 = 0.3197	–	7.07e-07
[1], x1 = 0.3776	–	7.48e-07
[1], x1 = 0.4395	–	7.8e-07
[1], x1 = 0.4861	–	7.92e-07
[1], x1 = 0.5386	–	7.87e-07
[1], x1 = 0.5852	–	7.75e-07
[1], x1 = 0.6345	–	7.38e-07
[1], x1 = 0.6828	–	6.92e-07
[1], x1 = 0.713	–	6.43e-07
[1], x1 = 0.8089	–	4.89e-07
[1], x1 = 0.8864	–	3.26e-07
[1], x1 = 0.9483	–	1.64e-07
[2], x1 = 0.083	0.0857	–
[2], x1 = 0.1513	0.138	–
[2], x1 = 0.225	0.185	–
[2], x1 = 0.2965	0.221	–
[2], x1 = 0.3642	0.246	–
[2], x1 = 0.4271	0.259	–
[2], x1 = 0.4836	0.264	–
[2], x1 = 0.5356	0.262	–
[2], x1 = 0.5749	0.254	–
[2], x1 = 0.6055	0.246	–
[2], x1 = 0.6529	0.23	–
[2], x1 = 0.7058	0.209	–
[2], x1 = 0.7614	0.182	–
[2], x1 = 0.8186	0.15	–
[2], x1 = 0.8782	0.108	–
[2], x1 = 0.9384	0.0617	–

CCCCCOC(C)=O [pentyl ethanoate] + CCCCCCCCCCCCC
Details	excess molar enthalpy [kcal/mol]	excess molar volume [m3/mol]
[1], x1 = 0.0955	–	3.07e-07
[1], x1 = 0.1575	–	4.63e-07
[1], x1 = 0.2323	–	6.22e-07
[1], x1 = 0.2961	–	7.29e-07
[1], x1 = 0.3517	–	7.96e-07
[1], x1 = 0.4152	–	8.59e-07
[1], x1 = 0.4689	–	8.87e-07
[1], x1 = 0.5228	–	8.91e-07
[1], x1 = 0.5724	–	8.76e-07
[1], x1 = 0.6226	–	8.35e-07
[1], x1 = 0.667	–	7.77e-07
[1], x1 = 0.7036	–	7.29e-07
[1], x1 = 0.7416	–	6.77e-07
[1], x1 = 0.8311	–	5.02e-07
[1], x1 = 0.8985	–	3.43e-07
[1], x1 = 0.9564	–	1.66e-07
[2], x1 = 0.0653	0.0763	–
[2], x1 = 0.1352	0.138	–
[2], x1 = 0.2036	0.191	–
[2], x1 = 0.2679	0.231	–
[2], x1 = 0.326	0.259	–
[2], x1 = 0.3795	0.278	–
[2], x1 = 0.4178	0.287	–
[2], x1 = 0.4635	0.294	–
[2], x1 = 0.5035	0.293	–
[2], x1 = 0.5376	0.29	–
[2], x1 = 0.5674	0.285	–
[2], x1 = 0.5679	0.28	–
[2], x1 = 0.6418	0.26	–
[2], x1 = 0.6886	0.242	–
[2], x1 = 0.7385	0.217	–
[2], x1 = 0.7897	0.189	–
[2], x1 = 0.8433	0.153	–
[2], x1 = 0.8966	0.108	–
[2], x1 = 0.9506	0.0582	–

CCCOC(C)=O [propyl ethanoate] + CCCCCCC
Details	excess molar enthalpy [kcal/mol]	excess molar volume [m3/mol]
[1], x1 = 0.0727	–	3.32e-07
[1], x1 = 0.1288	–	4.98e-07
[1], x1 = 0.1829	–	6.45e-07
[1], x1 = 0.2463	–	7.68e-07
[1], x1 = 0.2995	–	8.38e-07
[1], x1 = 0.3536	–	8.87e-07
[1], x1 = 0.404	–	9.09e-07
[1], x1 = 0.463	–	9.23e-07
[1], x1 = 0.5069	–	9.1e-07
[1], x1 = 0.5618	–	8.85e-07
[1], x1 = 0.6574	–	7.96e-07
[1], x1 = 0.6914	–	7.52e-07
[1], x1 = 0.7928	–	5.61e-07
[1], x1 = 0.8765	–	3.62e-07
[1], x1 = 0.9436	–	1.75e-07
[2], x1 = 0.0692	0.0826	–
[2], x1 = 0.1449	0.151	–
[2], x1 = 0.2229	0.211	–
[2], x1 = 0.2968	0.251	–
[2], x1 = 0.3635	0.278	–
[2], x1 = 0.4256	0.292	–
[2], x1 = 0.484	0.295	–
[2], x1 = 0.535	0.291	–
[2], x1 = 0.5539	0.284	–
[2], x1 = 0.6002	0.27	–
[2], x1 = 0.6528	0.251	–
[2], x1 = 0.6987	0.228	–
[2], x1 = 0.7526	0.198	–
[2], x1 = 0.8089	0.158	–
[2], x1 = 0.8635	0.118	–
[2], x1 = 0.9048	0.0847	–
[2], x1 = 0.9537	0.0443	–

CCCOC(C)=O [propyl ethanoate] + CCCCCCCCC
Details	excess molar enthalpy, [2] [kcal/mol]	excess molar volume, [1] [m3/mol]
x1 = 0.0866	0.109	3.76e-07
x1 = 0.1486	–	5.74e-07
x1 = 0.1795	0.191	–
x1 = 0.2182	–	7.77e-07
x1 = 0.2657	0.255	–
x1 = 0.2774	–	8.96e-07
x1 = 0.344	0.294	–
x1 = 0.3451	–	9.99e-07
x1 = 0.4053	–	1.075e-06
x1 = 0.4115	0.318	–
x1 = 0.4561	–	1.101e-06
x1 = 0.4797	0.33	–
x1 = 0.5089	–	1.111e-06
x1 = 0.5358	0.328	–
x1 = 0.5631	–	1.094e-06
x1 = 0.5815	0.321	–
x1 = 0.6115	–	1.058e-06
x1 = 0.6251	0.307	–
x1 = 0.6577	–	1.012e-06
x1 = 0.6703	0.287	–
x1 = 0.7051	–	9.38e-07
x1 = 0.7182	0.262	–
x1 = 0.7328	–	8.95e-07
x1 = 0.7662	0.233	–
x1 = 0.8182	0.197	–
x1 = 0.8254	–	6.64e-07
x1 = 0.8684	0.155	–
x1 = 0.8966	–	4.35e-07
x1 = 0.9158	0.105	–
x1 = 0.9496	–	2.29e-07
x1 = 0.9598	0.0553	–

CCCCCCCCCCCCC [tridecane] + CCCCOC(C)=O
Details	excess molar enthalpy [kcal/mol]	excess molar volume [m3/mol]
[1], x2 = 0.1024	–	3.78e-07
[1], x2 = 0.1769	–	5.73e-07
[1], x2 = 0.2511	–	7.35e-07
[1], x2 = 0.3192	–	8.56e-07
[1], x2 = 0.3845	–	9.36e-07
[1], x2 = 0.4434	–	9.93e-07
[1], x2 = 0.5021	–	1.014e-06
[1], x2 = 0.5481	–	1.023e-06
[1], x2 = 0.6023	–	1.006e-06
[1], x2 = 0.6495	–	9.59e-07
[1], x2 = 0.6914	–	9.14e-07
[1], x2 = 0.7346	–	8.49e-07
[1], x2 = 0.7647	–	7.97e-07
[1], x2 = 0.8473	–	5.94e-07
[1], x2 = 0.9072	–	3.95e-07
[1], x2 = 0.9586	–	1.65e-07
[2], x2 = 0.0771	0.0913	–
[2], x2 = 0.166	0.17	–
[2], x2 = 0.2551	0.238	–
[2], x2 = 0.3371	0.286	–
[2], x2 = 0.405	0.312	–
[2], x2 = 0.4672	0.326	–
[2], x2 = 0.5179	0.329	–
[2], x2 = 0.5589	0.326	–
[2], x2 = 0.5984	0.32	–
[2], x2 = 0.6058	0.317	–
[2], x2 = 0.64	0.306	–
[2], x2 = 0.6863	0.286	–
[2], x2 = 0.7361	0.259	–
[2], x2 = 0.7879	0.224	–
[2], x2 = 0.8426	0.183	–
[2], x2 = 0.8971	0.13	–
[2], x2 = 0.9531	0.0683	–

CCCCCCCCCCCCC [tridecane] + CCCOC(C)=O
Details	excess molar enthalpy [kcal/mol]	excess molar volume [m3/mol]
[1], x2 = 0.1139	–	4.77e-07
[1], x2 = 0.1844	–	7.09e-07
[1], x2 = 0.2748	–	9.32e-07
[1], x2 = 0.3425	–	1.072e-06
[1], x2 = 0.4123	–	1.16e-06
[1], x2 = 0.4772	–	1.205e-06
[1], x2 = 0.5337	–	1.232e-06
[1], x2 = 0.5864	–	1.216e-06
[1], x2 = 0.6311	–	1.183e-06
[1], x2 = 0.6791	–	1.139e-06
[1], x2 = 0.722	–	1.069e-06
[1], x2 = 0.7535	–	1.012e-06
[1], x2 = 0.7862	–	9.31e-07
[1], x2 = 0.8631	–	6.98e-07
[1], x2 = 0.9199	–	4.58e-07
[1], x2 = 0.9642	–	2.27e-07
[2], x2 = 0.087	0.103	–
[2], x2 = 0.1659	0.187	–
[2], x2 = 0.2413	0.26	–
[2], x2 = 0.3093	0.312	–
[2], x2 = 0.3709	0.349	–
[2], x2 = 0.4257	0.372	–
[2], x2 = 0.477	0.386	–
[2], x2 = 0.5193	0.39	–
[2], x2 = 0.5602	0.391	–
[2], x2 = 0.6296	0.379	–
[2], x2 = 0.6706	0.367	–
[2], x2 = 0.716	0.346	–
[2], x2 = 0.7628	0.317	–
[2], x2 = 0.809	0.272	–
[2], x2 = 0.8594	0.218	–
[2], x2 = 0.9097	0.158	–
[2], x2 = 0.9585	0.0781	–
